In publication PMC3038857, “Using Nuclear Receptor Activity to Stratify Hepatocarcinogens” (PLoS ONE, 2011):

Key:
[1] = biological target: T1, AHR (aryl hydrocarbon receptor) (Homo sapiens, UniProt P35869); assay: ATG_Ahr_CIS: Factorial reporter gene assay (multiplexed transcription reporter, HepG2); assay type: cell-based; parameters: scale not given here
T1 construct: endogenous in cells; host or cells: HepG2
T1 sequence (P35869 11-848): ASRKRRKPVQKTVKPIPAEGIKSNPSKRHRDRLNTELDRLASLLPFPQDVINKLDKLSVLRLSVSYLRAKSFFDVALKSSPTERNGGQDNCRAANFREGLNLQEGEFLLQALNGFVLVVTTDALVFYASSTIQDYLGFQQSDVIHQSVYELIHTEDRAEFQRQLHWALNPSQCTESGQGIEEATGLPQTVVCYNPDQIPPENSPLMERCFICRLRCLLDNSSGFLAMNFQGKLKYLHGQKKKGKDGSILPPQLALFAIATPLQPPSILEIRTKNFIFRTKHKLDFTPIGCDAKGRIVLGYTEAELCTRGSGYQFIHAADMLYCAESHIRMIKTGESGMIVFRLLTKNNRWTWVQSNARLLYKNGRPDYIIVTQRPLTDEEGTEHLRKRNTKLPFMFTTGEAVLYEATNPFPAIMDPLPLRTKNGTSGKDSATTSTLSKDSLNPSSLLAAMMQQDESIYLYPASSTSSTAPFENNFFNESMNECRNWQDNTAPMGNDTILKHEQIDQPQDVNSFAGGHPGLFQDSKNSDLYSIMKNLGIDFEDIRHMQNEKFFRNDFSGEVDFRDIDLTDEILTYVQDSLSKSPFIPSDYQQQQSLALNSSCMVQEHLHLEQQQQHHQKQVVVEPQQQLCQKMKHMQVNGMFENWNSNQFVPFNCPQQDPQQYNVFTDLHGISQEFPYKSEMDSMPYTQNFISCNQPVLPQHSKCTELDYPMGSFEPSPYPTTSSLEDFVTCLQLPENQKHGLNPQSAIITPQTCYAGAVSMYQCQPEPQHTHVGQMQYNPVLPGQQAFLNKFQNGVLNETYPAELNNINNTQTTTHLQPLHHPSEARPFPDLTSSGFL
Method in brief: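 HepG2 cells transfected with multiplexed reporter libraries: cis-acting binding-site reporters (CIS) and a one-hybrid nuclear-receptor trans system (TRANS). Chemicals tested at seven concentrations, starting at the maximum tolerated concentration with three-fold serial dilutions.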

ERa (ESR1) = biological target: T2, ERa (ESR1) (Homo sapiens, UniProt P03372); assay: NCGC_ERalpha_Antagonist: GAL4 BLAM Reporter gene assay: ERa; assay type: cell-based; details: antagonist mode; scale not given, looks like -log10 of molar active concentration; 0 = no activity
T2 construct: expressed in transfected cells; host or cells: HEK293

CYP1A2 = assay: CLZD_CYP1A2: Change in expression of CYP1A2 (primary human hepatocytes); assay type: cell-based; details: 24 hr
Method in brief: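 Cultured primary human hepatocytes treated with chemicals for 6, 24 or 48 hr across five concentrations spanning 0.004-40 µM, then transcript level measured by quantitative nuclease protection in a multiplexed format.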

LXRa (NR1H2) = assay: NCGC_LXR_Agonist: GAL4 BLAM Reporter gene assay: LXRa; assay type: cell-based, human; details: agonist mode
Method: These assays measure binding constants and enzyme inhibition values for nuclear receptors. The targets include [drawing 67] , [drawing 68] , [drawing 69] , [drawing 70] , [drawing 71] , [drawing 72] , [drawing 73] , [drawing 74] , [drawing 75] and [drawing 76] . Each of the nuclear receptor targets was measured in agonist mode. Assays were run at the NIH Chemical Genomics Center (Rockville, MD).
Cell-based HTS Assays: These assays measuring binding constants and enzyme inhibition values for nuclear receptors. The targets include AR, ER, FXR, LXR, PPARα, PPARδ, PPARγ, RXRα, RXRβ and PXR. Each of the nuclear receptor targets was measured in both agonist and antagonist mode, but the antagonist data is still undergoing analysis due to possible interference between cytotoxicity and assay activity, so antagonist mode data were not used in the present analysis. Assays were run at the NIH Chemical Genomics Center (Rockville, MD) as part of the Tox21 collaboration. […] The R^2 was required to be ≥0.5. Values where only the highest concentration exceeded 50% activity were excluded to eliminate weak or false positives. Detailed description of the methods, data and analysis methods for this dataset will be presented in a separate publication.

HMGCS2 = assay: CLZD_HMGCS2: Change in expression of HMGCS2 (primary human hepatocytes); assay type: cell-based; details: 24 hr, scale not given, looks like -log10 of molar active concentration, 0 = no activity
Method: This is a collection of multiplexed gene expression assays focused on Phase I and II xenobiotic metabolizing enzymes and transporters. Human primary cell cultures were treated with chemicals at 5 concentrations (0.004-40 [drawing 42] M) for 6, 24 and 48 hr. Concentration- and time-response profiles of chemicals were measured by the expression of key nuclear receptor target genes, activities of CYP1A enzymes (EROD), and cell morphology. Fourteen gene targets were monitored by quantitative nuclease protection assay including: six representative cytochrome P-450 genes, four hepatic transporters, three Phase II conjugating enzymes, and one endogenous metabolism gene involved in cholesterol synthesis. The target genes associated with nuclear receptor pathways are as follows: [drawing 43] and [drawing 44] with [drawing 45]; [drawing 46] , [drawing 47] , [drawing 48] , [drawing 49] , [drawing 50] and [drawing 51] with [drawing 52]; [drawing 53] , [drawing 54] , [drawing 55] and [drawing 56] with [drawing 57]; [drawing 58] with [drawing 59]; and [drawing 60] with [drawing 61] . Assays were run in primary human hepatocyte cultures by CellzDirect Invitrogen Inc. (Durham, NC), in collaboration with EPA.
Multiplexed Gene Expression in Human Primary Hepatocytes: This is a collection of multiplexed gene expression assays focused on Phase I and II metabolic enzymes and transporters. […] Fourteen gene targets were monitored by quantitative nuclease protection assay: six representative cytochrome P450 genes, four hepatic transporters, three Phase II conjugating enzymes, and one endogenous metabolism gene involved in cholesterol synthesis. Cells were exposed at 5 concentrations (0.004-40 µM) for 6, 24 or 48 hr. Gene targets are sentinels for five nuclear receptor signaling pathways: AhR, CAR, PXR, FXR, and PPARα. All gene are associated with nuclear receptor pathways: CYP1A1 and CYP1A2 with AHR; ABCB1, ABCG2, CYP2B6, CYP2C9, CYP2C19 and UGT1A1 with CAR; CYP3A4, GSTA2, SLCO1B1 and SULT2A1 with PXR; HMGCS2 with PPARA; and ABCB11 with FXR. […] Detailed description of the methods, data and analysis methods for this dataset will be presented in a separate publication.

[2] = HepG2, scale not given, looks like -log10 of molar active concentration, 0 = no activity
[3] = scale not given, looks like -log10 of molar active concentration, 0 = no activity

T2 sequence (P03372 whole entry, the tested form may be a part): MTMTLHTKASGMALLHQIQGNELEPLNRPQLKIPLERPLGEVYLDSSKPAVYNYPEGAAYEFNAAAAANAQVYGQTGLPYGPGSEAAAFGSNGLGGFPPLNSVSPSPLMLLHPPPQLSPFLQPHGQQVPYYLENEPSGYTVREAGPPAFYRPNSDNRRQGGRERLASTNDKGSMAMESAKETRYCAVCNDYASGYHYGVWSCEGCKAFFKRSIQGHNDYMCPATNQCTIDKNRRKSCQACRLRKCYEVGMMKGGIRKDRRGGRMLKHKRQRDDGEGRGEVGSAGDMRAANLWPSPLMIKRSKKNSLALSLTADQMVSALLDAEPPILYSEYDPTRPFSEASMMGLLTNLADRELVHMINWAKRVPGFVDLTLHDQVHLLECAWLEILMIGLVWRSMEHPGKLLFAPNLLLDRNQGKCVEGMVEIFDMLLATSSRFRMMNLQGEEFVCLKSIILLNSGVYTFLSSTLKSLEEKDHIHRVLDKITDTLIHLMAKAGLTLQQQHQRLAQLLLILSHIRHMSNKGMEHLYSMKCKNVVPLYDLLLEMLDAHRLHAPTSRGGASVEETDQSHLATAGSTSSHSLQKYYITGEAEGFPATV

| SMILES | ATG_Ahr_CIS [1, 2] | NCGC_ERalpha_Antagonist (ERa (ESR1)) | CLZD_CYP1A2_24 (CYP1A2; [3]) | NCGC_LXR_Agonist (LXRa (NR1H2); [3]) | CLZD_HMGCS2_24 (HMGCS2) | CLZD_CYP1A2_24 (CYP1A2) | NCGC_LXR_Agonist (LXRa (NR1H2)) | ATG_Ahr_CIS ([1]; HepG2) | ATG_Ahr_CIS ([1]; HepG2 reporter) |
| --- | --- | --- | --- | --- | --- | --- | --- | --- | --- |
| COC(=O)c1ccccc1CS(=O)(=O)NC(=O)Nc1nc(OC)cc(OC)n1 [r33] | 0 | 0 | 0 | 0 | 0 |  |  |  |  |
| CC(C)N1C(=O)c2ccccc2NS1(=O)=O [r37] | 0 | 0 | 0 | 0 | 0 |  |  |  |  |
| COc1ccc(-c2ccccc2)cc1NNC(=O)OC(C)C [r38] |  | 4.31 | 5.768 | 0 | 0 |  |  |  |  |
| Cc1c(COC(=O)C2C(/C=C(\Cl)C(F)(F)F)C2(C)C)cccc1-c1ccccc1 (stereo not shown) [r39] | 0 | 0 | 0 | 0 | 0 |  |  |  |  |
| CC(C)(c1ccc(O)cc1)c1ccc(O)cc1 [r40] | 4.495 | 4.77 | 0 | 0 | 0 |  |  |  |  |
| OB(O)O [r41] | 0 | 0 |  | 0 | 0 |  |  |  |  |
| O=C(Nc1ccccc1-c1ccc(Cl)cc1)c1cccnc1Cl [r42] | 0 | 0 | 4.876 | 0 | 0 |  |  |  |  |
| CCC(C)n1c(=O)[nH]c(C)c(Br)c1=O (stereo not shown) [r43] | 0 | 0 | 4.966 | 0 | 0 |  |  |  |  |
| N#Cc1cc(Br)c(O)c(Br)c1 [r44] | 4.319 | 0 | 0 | 0 | 0 |  |  |  |  |
| CC(C)N1C(=O)N(c2ccccc2)CS/C1=N\C(C)(C)C [r45] | 0 | 0 | 0 | 0 | 0 |  |  |  |  |
| CCCCOCN(C(=O)CCl)c1c(CC)cccc1CC [r46] | 0 | 0 | 0 | 0 | 0 |  |  |  |  |
| C=CCOC(=O)C(C)(C)OC(=O)c1cc(-n2c(=O)cc(C(F)(F)F)n(C)c2=O)ccc1Cl [r47] | 0 | 0 |  | 0 | 0 |  |  |  |  |
| CCC(C)Nc1c([N+](=O)[O-])cc(C(C)(C)C)cc1[N+](=O)[O-] (stereo not shown) [r48] | 0 | 0 | 0 | 0 | 0 |  |  |  |  |
| CCSC(=O)N(CC(C)C)CC(C)C [r49] | 0 | 0 | 0 | 0 | 0 |  |  |  |  |
| O=C1C2CC=CCC2C(=O)N1SC(Cl)(Cl)Cl (stereo not shown) [r51] | 0 | 0 | 0 | 0 | 0 |  |  |  |  |
| CNC(=O)Oc1cccc2ccccc12 [r52] | 4.456 | 0 |  | 0 | 0 |  |  |  |  |

| SMILES | ATG_Ahr_CIS [1, 2] | NCGC_ERalpha_Antagonist (ERa (ESR1)) | CLZD_CYP1A2_24 (CYP1A2; [3]) | NCGC_LXR_Agonist (LXRa (NR1H2); [3]) | CLZD_HMGCS2_24 (HMGCS2) | CLZD_CYP1A2_24 (CYP1A2) | NCGC_LXR_Agonist (LXRa (NR1H2)) | ATG_Ahr_CIS ([1]; HepG2) | ATG_Ahr_CIS ([1]; HepG2 reporter) |
| --- | --- | --- | --- | --- | --- | --- | --- | --- | --- |
| CC1=C(C(=O)Nc2ccccc2)SCCO1 [r53] | 0 | 0 | 4.782 | 0 | 0 |  |  |  |  |
| CCOC(=O)C(Cl)Cc1cc(-n2nc(C)n(C(F)F)c2=O)c(F)cc1Cl (stereo not shown) [r54] | 0 | 0 | 0 | 0 | 0 |  |  |  |  |
| Nc1cnn(-c2ccccc2)c(=O)c1Cl [r56] | 4.444 | 0 | 4.955 | 0 | 0 |  |  |  |  |
| COc1cc(Cl)c(OC)cc1Cl [r57] | 0 | 0 | 0 | 0 | 0 |  |  |  |  |
| N#Cc1c(Cl)c(Cl)c(Cl)c(C#N)c1Cl [r58] | 0 | 0 | 0 | 0 | 0 |  |  |  |  |
| CC(C)OC(=O)Nc1cccc(Cl)c1 [r59] | 0 | 0 | 5.159 | 0 | 0 |  |  |  |  |
| Cc1ccccc1CO[C@@H]1C[C@@]2(C(C)C)CC[C@]1(C)O2 [r64] | 0 |  | 5.157 | 0 | 0 |  |  |  |  |
| C#CCC1=C(C)[C@H](OC(=O)[C@H]2[C@H](C=C(C)C)C2(C)C)CC1=O [r249] |  |  |  |  |  | 5.3 | 4.777 |  |  |
| CCCN(CCC)c1c([N+](=O)[O-])cc(C(F)(F)F)c(N)c1[N+](=O)[O-] [r252] |  |  |  |  |  | 5.166 |  | 4.444 |  |
| CSc1nc(NC(C)C)nc(NC(C)C)n1 [r256] |  |  |  |  |  | 5.251 |  |  |  |
| CCCC1COC(Cn2cncn2)(c2ccc(Cl)cc2Cl)O1 (stereo not shown) [r262] |  |  |  |  |  | 5.229 |  | 4.367 |  |
| CCc1ccc(C(=O)NN(C(=O)c2cc(C)cc(C)c2)C(C)(C)C)cc1 [r290] |  |  |  |  |  | 4.896 |  |  | 4.337 |
| COc1cccc(C(=O)NN(C(=O)c2cc(C)cc(C)c2)C(C)(C)C)c1C [row 202] |  |  |  |  |  | 4.924 |  | 4.409 |  |
| CCN(CC)C(=O)C(C)Oc1cccc2ccccc12 (stereo not shown) [row 219] |  |  |  |  |  | 5.174 |  | 4.456 |  |
| CC(C)Oc1cc(-n2nc(C(C)(C)C)oc2=O)c(Cl)cc1Cl [row 225] |  |  |  |  |  | 5.223 |  |  |  |
